Reference: patent US7829575B2, “Methods for treating androgen receptor related disorders” (University of Cincinnati, priority 2006, dated 2010)

Columns and labels:
AR = AR nuclear localization, immunostaining; assay type: cell-based; conditions: PC-3AR and LNCaP cells, SMEM, 20 μM, with or without 1 nM DHT, 2 h
Description: AR nuclear translocation is a necessary step for AR action. […] AR in the cells were stained with an antibody to AR and detected with Texas Red-labeled secondary antibody. […] AR is translocated to the nuclei upon treatment with DHT. […] Thus, DL3 binds to AR.

22Rv1 cells [1] = assay: PSA mRNA expression, real-time RT-PCR; assay type: cell-based; conditions: CMEM, 24 hr, dose response (FIG. 7A)
Method: (§1) In FIG. 7 LNCaP or 22Rv1 cells (A) are treated for 24 hr with DL3 and total RNA is extracted and analyzed by real-time RT-PCR. […] PSA mRNA in LNCaP cells is approximately 20 fold higher than that in 22Rv1 cells (FIG. 7A).

AR-AF2 (NTD deleted) = assay: PSA promoter luciferase reporter in PC-3 cells co-transfected with AR-AF2; conditions: 20 μM, 24 hr
[2] = system: LAPC-4, 22Rv1, PC-3, DU-145, PWE1-NB14, PWE1-NB26, PC-3AR cells; assay: hsp70 expression in other prostate cancer cell lines, western blotting; assay type: cell-based
Method: Downregulation of hsp70 expression by DL3 is AR-dependent. Thus, the effects of DL3 on hsp70 expression are further investigated in several other prostate cancer cell lines, including LAPC-4 (wildtype AR), 22Rv1 (mutant AR), and AR-negative cell lines PC-3, DU-145, PWE1-NB14 (ATCC), and PWE1-NB26 (ATCC). […] In FIG. 10, LAPC-4 (in SMEM) and all other (in CMEM) cells are treated for 24 hr and analyzed by western blotting. LNCaP cells are transfected for 24 hr with hsp70 or its control vector, then treated for 24 hr. Thus, the above observation is further validated in PC-3 cells stably transfected with wildtype AR (PC-3AR). […] On the other hand, overexpression of hsp70 in LNCaP cells elevates endogenous AR protein levels (FIG. 10, panel C, right). […] Thus, the downregulation of hsp70 in prostate cancer cells by DL3 is in an AR-dependent event.

LNCaP-AI cells = assay: Growth of androgen-independent LNCaP-AI cells, MTT; assay type: cell-based; conditions: SMEM, four days
Method: See, for example, FIG. 3 where LNCaP-A1 cells in SMEM and 22Rv1 cells in CMEM are cultured for four days with DL3, followed by MTT staining and 22Rv1 cells are obtained from ATCC.

LNCaP-Nilut-R cells = assay: PSA secretion, ELISA of culture supernatant; assay type: cell-based; conditions: 1 nM DHT, 10 μM, 48 hr (FIG. 5D)
Method: (§2) For the following discussion, see FIG. 5, where androgen-starved LNCaP, LNCaP-Flut-R, or LNCaP-Nilut-R cells are plated into 96-well plates at 2×10^4 cells/wells in SMEM and treated for 48 hr. PSA in the culture supernatant is determined by using an enzyme-linked immunosorbent assay (ELISA) kit. PSA levels are normalized by cell density. […] The DHT-induced production of PSA is reduced by approximately 50% in cells treated with 5 μM of DL3 (FIG. 5B). […] PSA production is elevated in LNCaP-Flut-R and LNCaP-Nilut-R cells compared with that in their parental cells (FIG. 5D).

LNCaP-Flut-R cells = assay: PSA secretion, ELISA of culture supernatant; assay type: cell-based; conditions: 1 nM DHT, 10 μM, 48 hr (FIG. 5D)
Method: as §2

LNCaP cells [3] = assay: PSA secretion, ELISA of culture supernatant; assay type: cell-based
Method: PSA in the culture supernatant is determined by using an enzyme-linked immunosorbent assay (ELISA) kit. PSA levels are normalized by cell density.

LNCaP cells [4] = assay: PSA and AR mRNA expression, RT-PCR; assay type: cell-based; conditions: 24 hr
Method: as §1

LNCaP cells [5] = assay: Expression of AR-regulated genes, quantitative RT-PCR (Table 1); assay type: cell-based; conditions: data not shown
LNCaP cells [6] = assay: as above; assay type: cell-based; conditions: DL3 20 μM for 24 hr
Method: To evaluate the specificity of the effects of DL3, expression of several other genes are determined by quantitative RT-PCR. […] In contrast, DL3 enhances expression of prostate-specific membrane antigen (PSMA), which is repressed by AR activation.

LNCaP-ARR2-GFP cells = assay: AR-regulated GFP expression in LNCaP-ARR2-GFP cells; assay type: cell-based; conditions: SMEM, absence of DHT; DL3 at 25 nM or 20 μM
22Rv1 cells [7] = assay: Cellular PSA and AR protein, western blotting; assay type: cell-based; conditions: 24 hr
AR N/C interaction = target: T1, AR N/C interaction (Homo sapiens, UniProt P10275); assay: AR N/C interaction, mammalian two-hybrid luciferase in HeLa cells; assay type: cell-based; conditions: 24 hr
T1 construct: the AR LBD and GAL4 DBD fusion protein (GAL4-LBD); expressed in transfected cells; host or cells: HeLa
T1 sequence (P10275 669-900 limits assumed): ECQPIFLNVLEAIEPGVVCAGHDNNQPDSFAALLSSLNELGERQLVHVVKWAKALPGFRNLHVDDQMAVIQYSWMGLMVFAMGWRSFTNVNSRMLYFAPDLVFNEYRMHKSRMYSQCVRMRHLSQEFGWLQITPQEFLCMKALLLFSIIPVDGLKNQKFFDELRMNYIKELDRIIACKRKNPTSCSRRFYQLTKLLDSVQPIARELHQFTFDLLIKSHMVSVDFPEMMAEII
Description: This is done in a mammalian two-hybrid system, in which HeLa cells are cotransfected with vectors encoding the luciferase reporter driven by a tandem GAL4-responsive elements (GAL4-luc), the AR LBD and GAL4 DBD fusion protein (GAL4-LBD), and AR NTD and VP16 transactivation domain fusion protein (VP16-NTD).

## CC(C)(C)c1ccc(OCCSc2nc(=O)cc(N)[nH]2)cc1 [DL3, 6-amino-2-(2-4-tert-butyl-phenoxy)-ethylsulfanyl-1H-pyrimidin-4-one]
AR
  nuclear localization of AR: partially induce and enhance DHT-induced nuclear localization of AR
22Rv1 cells [1]
  expression of PSA mRNA: inhibits the expression of PSA mRNA
AR-AF2 (NTD deleted)
  activation of PSA promoter activity by AR-AF2: does not inhibit
[2]; LAPC-4, 22Rv1 vs AR-negative PC-3, DU-145, PWE1-NB14, PWE1-NB26, 24 hr
  downregulation of hsp70 expression across AR-positive and AR-negative cell lines: found in only the cells expressing AR
[2]; PC-3 stably transfected with wildtype AR
  hsp70 expression in PC-3AR cells: downregulates hsp70 expression
LNCaP-AI cells
  growth of androgen-independent LNCaP-AI cells: suppressed
LNCaP-Nilut-R cells
  PSA production in LNCaP-Nilut-R cells: inhibits PSA production
LNCaP-Flut-R cells
  PSA production in LNCaP-Flut-R cells: inhibits PSA production
LNCaP cells [3]; 1 nM DHT, 10 μM, 48 hr (FIG. 5D)
  PSA production in parental LNCaP cells: inhibits PSA production
LNCaP cells [3]; 5 μM, 48 hr
  reduction of DHT-induced production of PSA: approximately 50%
LNCaP cells [3]; 20 μM, no DHT, 48 hr
  PSA production under androgen-free conditions: does not induce PSA production
LNCaP cells [3]; Homo sapiens, LNCaP, 48 h, read-out: inhibition of DHT-induced PSA production
  inhibition at 20 µM: ~90%
LNCaP cells [3]; various concentrations of DL3 and DHT (FIG. 5B)
  inhibitory effects on DHT-induced PSA production, dose response: dose-dependent
LNCaP cells [3]; various concentrations of DL3 and Nilut (FIG. 5C)
  PSA production stimulated by Nilut: blocked
LNCaP cells [4]; 20 μM, 1 nM DHT
  DHT-stimulated PSA mRNA expression: abolishes
LNCaP cells [4]; 20 μM, androgen-starved
  basal level of PSA mRNA: significantly reduces
LNCaP cells [4]; 1 nM DHT, 20 μM DL3 or Bical
  expression of AR mRNA: partially downregulated
LNCaP cells [4]; CMEM, dose response (FIG. 7A)
  expression of PSA mRNA: inhibits the expression of PSA mRNA
LNCaP cells [5]
  PSMA expression at the protein level: Enhancement of PSMA expression
LNCaP cells [6]
  IL-8 expression DL3/CTR (%): 107%
  IL-8 expression level relative to β-actin: 8.59e−04
  PSA expression DL3/CTR (%): 3%
  PSA expression level relative to β-actin: 3.03e−02
  PSCA expression DL3/CTR (%): 55%
  PSCA expression level relative to β-actin: 1.90e−04
  PSMA expression DL3/CTR (%): 379%
  PSMA expression level relative to β-actin: 1.35e−01
  hK2 expression DL3/CTR (%): 18%
  hK2 expression level relative to β-actin: 4.05e−03
LNCaP-ARR2-GFP cells
  GFP expression (AR agonist activity): does not induce GFP expression
22Rv1 cells [7]; 5 and 10 μM
  expression of AR protein: not significantly altered
22Rv1 cells [7]; 20 and 40 μM
  expression of AR protein: reduced
22Rv1 cells [7]; CMEM, increasing concentrations
  PSA protein expression: inhibitory effects
AR N/C interaction; 1 nM DHT, different concentrations
  DHT-induced N/C interaction: not significantly altered
AR N/C interaction; no DHT
  luciferase activity (N/C interaction), compound alone: not significantly altered
